Laboratory results from patent US12421253B2 (Mirati Therapeutics, Inc., priority 2020, dated 2025).

Columns and labels:
[1] = target: T1, KRas^G12V (Homo sapiens, UniProt P01116, G12V); experiment: KRas binding assay (TR-FRET displacement of Cy5 labelled tracer)
T1 construct: […]; biotin (biotinylated); purchased Accelegan Inc
Experimental: (§3) The ability of a compound to bind to KRas was measured using a TR-FRET displacement assay. […] After a 60-minute incubation at room temperature, the reaction was measured using a BMG LABTECH CLARIO star Plus via TR-FRET. […] The POC values were fit to a 4-parameter IC50 equation and the IC50 value reported.

[2] = target: T2, KRas^G12D (Homo sapiens, UniProt P01116, G12D); experiment: as above
T2 construct: […]; biotin (biotinylated); purchased Accelegan Inc
Experimental: as §3

[3] = target: T3, KRas^G12R (Homo sapiens, UniProt P01116, G12R); experiment: as above
T3 construct: […]; biotin (biotinylated); purchased Accelegan Inc
T3 sequence (P01116 1-169 isoform P01116-2 G12R): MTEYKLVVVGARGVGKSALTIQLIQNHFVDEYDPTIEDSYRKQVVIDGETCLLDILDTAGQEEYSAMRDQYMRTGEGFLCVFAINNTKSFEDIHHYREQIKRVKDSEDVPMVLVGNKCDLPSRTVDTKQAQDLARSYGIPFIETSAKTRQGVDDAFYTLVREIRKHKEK
Experimental: as §3

[4] = tested on: NCI-H460 (Q61H) cells, phospho-ERK; experiment: Inhibition of KRas-mediated phosphorylation of ERK (phospho-ERK/GAPDH antibody detection, LI-COR); type: cell-based; settings: Homo sapiens, 3 hours
Method in brief: (§1)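 Cells seeded 20,000/well, attached 12-14 h, then compound (0.5% DMSO) for 3 h. Formaldehyde-fixed, methanol-permeabilized cells stained for phospho-ERK (Thr202/Tyr204) and GAPDH; infrared imaging. Ratio expressed as % of DMSO control; IC50 from 4-parameter fit.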

[5] = tested on: NCI-H727 (G12V) cells, phospho-ERK; experiment: as above; type: cell-based; settings: Homo sapiens, 3 hours
Method in brief: as §1

[6] = tested on: AsPC-1 (G12D) cells, phospho-ERK; experiment: as above; type: cell-based; settings: Homo sapiens, ASPC1, 3 hours
Method in brief: as §1

[7] = tested on: A549 cells, pERK; experiment: Inhibition of KRas phosphorylation of ERK (Cisbio HTRF Advanced pERK assay); type: cell-based; settings: Homo sapiens, 3 hrs, read-out: Inhibition (HTRF IC50 nM) of KRas-mediated Phosphorylation of ERK, A549
Method in brief: (§2)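 Cells seeded at 6,000/well in RPMI with 10% FBS, grown overnight at 37 °C, then exposed 3 h to 10-dose 3-fold compound series from 10 uM (0.8% DMSO final); 0.2 uM trametinib as minimum control. Lysates read for pERK by HTRF after 2 h antibody incubation at room temperature.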

[8] = tested on: ASPC1 cells, pERK; experiment: as above; type: cell-based; settings: Homo sapiens, ASPC1, 3 h, AsPC-1 cells, read-out: Inhibition (HTRF IC50 nM) of KRas-mediated Phosphorylation of ERK, AsPC-1
Method in brief: as §2

[9] = tested on: HCT116 cells, pERK; experiment: as above; type: cell-based; settings: Homo sapiens, HCT-116, 3 hrs, read-out: Inhibition (HTRF IC50 nM) of KRas-mediated Phosphorylation of ERK, HCT116
Method in brief: as §2

[10] = tested on: H727 cells, pERK; experiment: as above; type: cell-based; settings: Homo sapiens, NCI-H727, 3 h, read-out: Inhibition (HTRF IC50 nM) of KRas-mediated Phosphorylation of ERK, H727
Method in brief: as §2

[11] = tested on: PSN1 cells, pERK; experiment: as above; type: cell-based; settings: Homo sapiens, PSN1, 3 h, read-out: Inhibition (HTRF IC50 nM) of KRas-mediated Phosphorylation of ERK, PSN1
Method in brief: as §2

[12] = tested on: MKN1 cells, pERK; experiment: as above; type: cell-based; settings: Homo sapiens, MKN-1, 3 h, read-out: Inhibition (HTRF IC50 nM) of KRas-mediated Phosphorylation of ERK, MKN1
Method in brief: as §2

[13] = tested on: H358 cells, pERK; experiment: as above; type: cell-based; settings: Homo sapiens, NCI-H358, 3 hrs, read-out: Inhibition (HTRF IC50 nM) of KRas-mediated Phosphorylation of ERK, H358
Method in brief: as §2

[14] = tested on: H460 cells, pERK; experiment: as above; type: cell-based; settings: Homo sapiens, NCI-H460, 3 hrs, read-out: Inhibition (HTRF IC50 nM) of KRas-mediated Phosphorylation of ERK, H460
Method in brief: as §2

T1 sequence (P01116 1-169 isoform P01116-2 G12V): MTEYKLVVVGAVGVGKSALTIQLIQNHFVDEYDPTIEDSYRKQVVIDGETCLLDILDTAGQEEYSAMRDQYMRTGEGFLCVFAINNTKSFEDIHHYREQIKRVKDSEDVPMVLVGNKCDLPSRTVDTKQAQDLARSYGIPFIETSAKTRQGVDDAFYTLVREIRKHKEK
T2 sequence (P01116 1-169 isoform P01116-2 G12D): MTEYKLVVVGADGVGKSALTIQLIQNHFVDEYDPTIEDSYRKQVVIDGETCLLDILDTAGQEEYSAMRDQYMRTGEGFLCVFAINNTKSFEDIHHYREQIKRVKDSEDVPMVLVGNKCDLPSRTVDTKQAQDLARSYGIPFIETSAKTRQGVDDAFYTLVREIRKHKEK

Structure (SMILES) | IC50 [1] [nM] | IC50 [2] [nM] | IC50 [3] [nM] | IC50 [4] [nM] | IC50 [5] [nM] | IC50 [6] [nM] | IC50 [7] [nM] | IC50 [8] [nM] | IC50 [9] [nM] | IC50 [10] [nM] | IC50 [11] [nM] | IC50 [12] [nM] | IC50 [13] [nM] | IC50 [14] [nM]
CCc1c(F)ccc2cc(O)cc(N3CCc4c(nc(OC[C@@]56CCCN5C[C@H](F)C6)nc4N4CCCn5nc(CO)cc5C4)C3)c12 [Example 34, 5-ethyl-6-fluoro-4-(2-(((2R,7aS)-2-fluorohexahydro-1H-pyrrolizin-7a-yl)methoxy)-4-(2-(hydroxymethyl)-7,8-dihydro-4H-pyrazolo[1,5-a][1,4]diazepin-5(6H)-yl)-5,6-dihydropyrido[3,4-d]pyrimidin-7(8H)-yl)naphthalen-2-ol] | ≤ 2 | ≤ 2 | ≤ 2 | 774 | 1040 | 258 | 351 | 31 | 1270 | 217 | ≥ 10000 | 134 | 38 | 784
O=S1(=O)NCC2(CCCN(c3nc(OC[C@@]45CCCN4C[C@H](F)C5)nc4c3CCN(c3cc(O)cc5ccc(F)c(Cl)c35)C4)C2)N1 (stereo partly drawn) [Example 72, 7-(7-(8-chloro-7-fluoro-3-hydroxynaphthalen-1-yl)-2-(((2R,7aS)-2-fluorohexahydro-1H-pyrrolizin-7a-yl)methoxy)-5,6,7,8-tetrahydropyrido[3,4-d]pyrimidin-4-yl)-2-thia-1,3,7-triazaspiro[4.5]decane 2,2-dioxide] | ≤ 2 | ≤ 2 | ≤ 2 |  |  |  | 32 | 10 | 126 | 59 | 148 | 7 | 8 | 59
CCc1c(F)ccc2cc(O)cc(N3CCc4c(nc(OCC5(CN(C)C)CC5)nc4N4CCCC5(C4)NC(=O)NC5=O)C3)c12 (centres unmarked) [Example 201, 7-(2-((1-((dimethylamino)methyl)cyclopropyl)methoxy)-7-(8-ethyl-7-fluoro-3-hydroxynaphthalen-1-yl)-5,6,7,8-tetrahydropyrido[3,4-d]pyrimidin-4-yl)-1,3,7-triazaspiro[4.5]decane-2,4-dione] | ≤ 2 | ≤ 2 | 4 |  |  |  | 14 | 49 | 49 | 176 | 80.5 | 49 | 12 | 26
CCc1c(F)ccc2cc(O)cc(N3CCc4c(nc(OC[C@@]56CCCN5C[C@H](F)C6)nc4N4CCCC5(CNC(=O)N5)C4)C3)c12 (stereo partly drawn) [Example 62, 7-(7-(8-ethyl-7-fluoro-3-hydroxynaphthalen-1-yl)-2-(((2R,7aS)-2-fluorohexahydro-1H-pyrrolizin-7a-yl)methoxy)-5,6,7,8-tetrahydropyrido[3,4-d]pyrimidin-4-yl)-1,3,7-triazaspiro[4.5]decan-2-one] | ≤ 2 | ≤ 2 | ≤ 2 |  |  |  | 25 | 15 | 125 | 81 | 325 | 4 | 11 | 69
CCc1c(F)ccc2cc(O)cc(N3CCc4c(nc(OCC5(CN(C)C)CC5)nc4N4CCC[C@@](C)(O)C4)C3)c12 [Example 199, (R)-1-(2-((1-((dimethylamino)methyl)cyclopropyl)methoxy)-7-(8-ethyl-7-fluoro-3-hydroxynaphthalen-1-yl)-5,6,7,8-tetrahydropyrido[3,4-d]pyrimidin-4-yl)-3-methylpiperidin-3-ol] | ≤ 2 | ≤ 2 | ≤ 2 |  |  |  | 201 | 43 | 441 | 262 | 2500 | 31 | 65 | 242
CCc1c(F)ccc2cc(O)cc(N3CCc4c(nc(OCC5(CN(C)C)CC5)nc4N4C[C@@H]5C(=O)NC(=O)[C@@H]5C4)C3)c12 [Example 200, (3aS,6aR)-5-[2-[[1-[(dimethylamino)methyl]cyclopropyl]methoxy]-7-(8-ethyl-7-fluoro-3-hydroxy-1-naphthyl)-6,8-dihydro-5H-pyrido[3,4-d]pyrimidin-4-yl]-3a,4,6,6a-tetrahydropyrrolo[3,4-c]pyrrole-1,3-dione] | ≤ 2 | ≤ 2 | ≤ 2 |  |  |  | 142 | 62 | 832 | 264 | 9110 | 27 | 77 | 578
CN(C)C(=O)c1cc2n(n1)CCCN(c1nc(OC[C@@]34CCCN3C[C@H](F)C4)nc3c1CCN(c1cc(O)cc4ccc(F)c(Br)c14)C3)C2 [Example 218, 5-(7-(8-bromo-7-fluoro-3-hydroxynaphthalen-1-yl)-2-(((2R,7aS)-2-fluorohexahydro-1H-pyrrolizin-7a-yl)methoxy)-5,6,7,8-tetrahydropyrido[3,4-d]pyrimidin-4-yl)-N,N-dimethyl-5,6,7,8-tetrahydro-4H-pyrazolo[1,5-a][1,4]diazepine-2-carboxamide] | ≤ 2 | ≤ 2 | ≤ 2 |  |  |  | 294 | 46 | 1340 | 86 | 6070 | 85 | 61 | 845
CCc1c(F)ccc2cc(O)cc(N3CCc4c(nc(OCC56CCCN5CCC6)nc4N4CCCn5nc(C(=O)N(C)C)cc5C4)C3)c12 [Example 175, 5-[7-(8-ethyl-7-fluoro-3-hydroxy-1-naphthyl)-2-(1,2,3,5,6,7-hexahydropyrrolizin-8-ylmethoxy)-6,8-dihydro-5H-pyrido[3,4-d]pyrimidin-4-yl]-N,N-dimethyl-4,6,7,8-tetrahydropyrazolo[1,5-a][1,4]diazepine-2-carboxamide] | ≤ 2 | ≤ 2 | ≤ 2 |  |  |  | 326 | 53 | 1120 | 85 | 7860 | 58 | 50 | 750
CCc1c(F)ccc2cc(O)cc(N3CCc4c(nc(OC[C@@]56CCCN5C[C@H](F)C6)nc4N4CCC[C@]5(C4)NC(=O)NC5=O)C3)c12 [Example 196, (R)-7-(7-(8-ethyl-7-fluoro-3-hydroxynaphthalen-1-yl)-2-(((2R,7aS)-2-fluorohexahydro-1H-pyrrolizin-7a-yl)methoxy)-5,6,7,8-tetrahydropyrido[3,4-d]pyrimidin-4-yl)-1,3,7-triazaspiro[4.5]decane-2,4-dione] | ≤ 2 | ≤ 2 | ≤ 2 |  |  |  | 2 | 6 | 5 | 11 | 18 | 5 | 1 | 2
O=C1NCC2(CCCN(c3nc(OC[C@@]45CCCN4C[C@H](F)C5)nc4c3CCN(c3cc(O)cc5ccc(F)c(Br)c35)C4)C2)N1 (stereo partly drawn) [Example 216, 7-(7-(8-bromo-7-fluoro-3-hydroxynaphthalen-1-yl)-2-(((2R,7aS)-2-fluorohexahydro-1H-pyrrolizin-7a-yl)methoxy)-5,6,7,8-tetrahydropyrido[3,4-d]pyrimidin-4-yl)-1,3,7-triazaspiro[4.5]decan-2-one] | ≤ 2 | ≤ 2 | 3 |  |  |  | 206 | 92 | 531 | 300 | 1260 | 19 | 27 | 293
